Test in all cases: microbe, parasite or virus in culture
What all share (assay type): cell-based, HIV-1

In assay [1] the test system is NLRepRlucP373S recombinant wild type (WT) virus. The protocol: (§1) Cells. MT-2 cells and 293T cells were obtained from the NIH AIDS Research and Reference Reagent Program. Cell lines were sub-cultured twice a week in either RPMI 1640 (MT-2) or DMEM (293T, HeLa) media supplemented with 10% heat inactivated fetal bovine serum (FBS), 100 units/mL of penicillin G and 100 μg/mL of streptomycin. The DMEM medium was additionally supplemented with 10 mM HEPES buffer, pH 7.55, 2 mM L-glutamine and 0.25 μg/mL of amphotericin B.
(§2) Viruses. NLRepRluc virus contains the Renilla luciferase marker in place of the viral nef gene. The proviral plasmid pNLRepRluc was constructed at Bristol-Myers Squibb, starting from a proviral NL4-3 clone (B subtype) that was obtained from the NIH AIDS Research and Reference Reagent Program. The parental recombinant wild type (WT) virus (NLRepRlucP373S) was derived from NLRepRluc and contains the additional substitution of P373 for serine in Gag (within the SP1 spacer), the most common 373 variation in subtype B. Other recombinant viruses (A364V, V370A/ΔT371 and the “T3325 triple” (T332S/V362I+HIV-1 protease R41G)) were generated by site-directed mutagenesis of plasmid pNLRepRlucP373S to introduce those amino acid substitutions in Gag and protease. Recombinant virus DNA was then used to generate virus stocks by transfection of 293T cells (Lipofectamine PLUS kit, Invitrogen). Titers of virus stocks were determined using a luciferase assay (Dual-Luciferase® Reporter Assay System, Promega, Milwaukee, Wis., USA) endpoint.
(§3) Multiple cycle drug susceptibility assay. Pellets of MT-2 cells were infected with NLRepRlucP373S Gag site-directed viruses, where initial inocula of the reporter strains were normalized using equivalent endpoint luciferase activity signals. Such cell-virus mixtures were resuspended in medium, incubated for 1-hour at 37° C./CO2, and added to compound containing 96-well plates at a final cell density of 10,000 cells per well. The test compounds were 3-fold serially diluted in 100% DMSO, and assayed at a final DMSO concentration of 1%. After 4-5 day incubation at 37° C./CO2, virus yields were determined by Renilla luciferase activity (Dual-Luciferase® Reporter Assay System, Promega). The endpoint luminescence was detected on a Wallac Trilux (PerkinElmer).
The 50% inhibitory concentrations (EC50S) were calculated by using the exponential form of the median effect equation where Percent Inhibition=1/[1+(EC50/drug conc.^m], where m is a parameter that reflects the slope of the concentration-response curve. Background was taken as the residual signal observed upon inhibition at the highest concentration of a control protease inhibitor, NFV (3 μM).
The 90% inhibitory concentrations (EC90S) were calculated by using the exponential form of the median effect equation where ECF=[(F/(100−F)]^1/H·EC50, where H is a parameter that reflects the slope of the concentration-response curve. Background was taken as the residual signal observed upon inhibition at the highest concentration of a control protease inhibitor, NFV (3 μM).

The test system of another assay is gag V370A/ΔT371 virus. The following applies: for pEC50: Human immunodeficiency virus 1, MT2, read-out: V370A/ΔT371 EC50. The protocol: as §1, §2, §3
(§4) HIV-1 NL4-3 expressing Renilla luciferase gene was converted to the gag V370A/ΔT371 virus by site directed mutagenesis. A364V is a site directed mutant.
(§5) All three recombinant viruses were used as described above in the HIV cell culture assay for the NL4-3 virus.

Assay [2] concerns A364V site directed mutant virus. The settings on record: for pEC50: Human immunodeficiency virus 1, MT2, read-out: A364V EC50. The method, then: as §1, §2, §3, §4, §5
For assay [3], the system named is T332S/V362I/Pr R41G virus. The settings on record: for pEC50: Human immunodeficiency virus 1, MT2, read-out: T332S/V362I/pr41G EC50. The method, then: as §1, §2, §3
T332sN362I/Pr R41G (N14.3, B Clade) virus′ was obtained as follows: Selection for resistance of HIV-1 strain […] virus with the HIV maturation inhibitor (MI) compound
At passage 8 virus was harvested and sequenced.
as §5

Setting [4] is: Human immunodeficiency virus 1, MT2, read-out: WT EC50.

pEC50: −log10 of the molar value. Where two headings read alike, the source gives them in different places. Bounds are passed on as bounds.

EC50 and EC90 data for ten molecules are collected here from patent US10421774B2 (priority 2016, dated 2019).

As to `C=C(C)c1cc(OCC2(C(=O)O)CC=C(C3=CC[C@]4(C)[C@H]5CC[C@@H]6[C@H]7[C@H](C(=C)C)CC[C@]7(NCCN7CCS(=O)(=O)CC7)CC[C@@]6(C)[C@]5(C)CC[C@H]4C3(C)C)CC2)ns1` (some centres unmarked) [Example 18], the pEC50 in assay [1] (setting [4]) was 8.70; in the assay on gag V370A/ΔT371 virus, above 7.30; in assay [2], 7.96; in assay [3] it was 7.85.

Take `C=C(C)[C@@H]1CC[C@]2(NCCN3CCS(=O)(=O)CC3)CC[C@]3(C)[C@H](CC[C@@H]4[C@@]5(C)CC=C(C6=CCC(COc7cccnn7)(C(=O)O)CC6)C(C)(C)[C@@H]5CC[C@]43C)[C@@H]12` (stereo partly drawn) [Example 19, 4-((1R,3aS,5aR,5bR,7aR,11aS,11bR,13aR,13bR)-3a-((2-(1,1-dioxidothiomorpholino)ethyl)amino)-5a,5b,8,8,11a-pentamethyl-1-(prop-1-en-2-yl)-2,3,3a,4,5,5a,5b,6,7,7a,8,11,11a,11 b,12,13,13a,13b-octadecahydro-1H-cyclopenta[a]chrysen-9-yl)-1-((pyridazin-3-yloxy)methyl)cyclohex-3-ene-1-carboxylic acid]: the pEC50 in assay [1] (setting [4]) was 8.52; in the assay on gag V370A/ΔT371 virus, 7.33; in assay [2], 7.44; in assay [3], 7.33.

Turning to `C=C(C)[C@@H]1CC[C@]2(NCCN3CCS(=O)(=O)CC3)CC[C@]3(C)[C@H](CC[C@@H]4[C@@]5(C)CC=C(C6=CC[C@](COc7ccccn7)(C(=O)O)CC6)C(C)(C)[C@@H]5CC[C@]43C)[C@@H]12` [Example 20, (R)-4-((1R,3aS,5aR,5bR,7aR,11aS,11bR,13aR,13bR)-3a-((2-(1,1-dioxidothiomorpholino)ethyl)amino)-5a,5b,8,8,11a-pentamethyl-1-(prop-1-en-2-yl)-2,3,3a,4,5,5a,5b,6,7,7a,8,11,11a,11b,12,13,13a,13b-octadecahydro-1H-cyclopenta[a]chrysen-9-yl)-1-((pyridin-2-yloxy)methyl)cyclohex-3-ene-1-carboxylic acid], the pEC50 (in assay [1] (setting [4]); in the assay on gag V370A/ΔT371 virus; in assay [2]; in assay [3]) was above 7.30 throughout.

Turning to `C=C(C)[C@@H]1CC[C@]2(NCCN3CCS(=O)(=O)CC3)CC[C@]3(C)[C@H](CC[C@@H]4[C@@]5(C)CC=C(C6=CC[C@](COc7ccncn7)(C(=O)O)CC6)C(C)(C)[C@@H]5CC[C@]43C)[C@@H]12` [Example 21], the pEC50 in assay [1] (setting [4]) is above 7.30; with gag V370A/ΔT371 virus, below 7.30; in assay [2], above 7.30; in assay [3] it was below 7.30.

For `C=C(C)[C@@H]1CC[C@]2(NCCN3CCS(=O)(=O)CC3)CC[C@]3(C)[C@H](CC[C@@H]4[C@@]5(C)CC=C(C6=CC[C@](COc7ncccc7Cl)(C(=O)O)CC6)C(C)(C)[C@@H]5CC[C@]43C)[C@@H]12` [Example 22], the pEC50 in assay [1] (setting [4]) is 8.30; with gag V370A/ΔT371 virus it was 7.82; in assay [2], 8.10; in assay [3], 7.82.

Regarding `C=C(C)[C@@H]1CC[C@]2(NCCN3CCS(=O)(=O)CC3)CC[C@]3(C)[C@H](CC[C@@H]4[C@@]5(C)CC=C(C6=CC[C@](COc7ncccc7C#N)(C(=O)O)CC6)C(C)(C)[C@@H]5CC[C@]43C)[C@@H]12` [Example 23, (R)-1-(((3-cyanopyridin-2-yl)oxy)methyl)-4-((1R,3aS,5aR,5bR,7aR,11aS,11bR,13aR,13bR)-3a-((2-(1,1-dioxidothiomorpholino)ethyl)amino)-5a,5b,8,8,11a-pentamethyl-1-(prop-1-en-2-yl)-2,3,3a,4,5,5a,5b,6,7,7a,8,11,11a,11b,12,13,13a,13b-octadecahydro-1H-cyclopenta[a]chrysen-9-yl)cyclohex-3-ene-1-carboxylic acid], the pEC50 in assay [1] (setting [4]) is 8.70; in the assay on gag V370A/ΔT371 virus, above 7.30; in assay [2] it was below 7.30; in assay [3], 8.22.

`C=C(C)[C@@H]1CC[C@]2(NCCN3CCS(=O)(=O)CC3)CC[C@]3(C)[C@H](CC[C@@H]4[C@@]5(C)CC=C(C6=CC[C@](COc7ncccc7C(N)=O)(C(=O)O)CC6)C(C)(C)[C@@H]5CC[C@]43C)[C@@H]12` [Example 24, (R)-1-(((3-carbamoylpyridin-2-yl)oxy)methyl)-4-((1R,3aS,5aR,5bR,7aR,11aS,11bR,13aR,13bR)-3a-((2-(1,1-dioxidothiomorpholino)ethyl)amino)-5a,5b,8,8,11a-pentamethyl-1-(prop-1-en-2-yl)-2,3,3a,4,5,5a,5b,6,7,7a,8,11,11a,11 b,12,13,13a,13b-octadecahydro-1H-cyclopenta[a]chrysen-9-yl)cyclohex-3-ene-1-carboxylic acid]: the pEC50 in assay [1] (setting [4]) is 8.70; with gag V370A/ΔT371 virus, 7.92; in assay [2], 8.10; in assay [3], 7.92.

In the case of `C=C(C)[C@@H]1CC[C@]2(NCCN3CCS(=O)(=O)CC3)CC[C@]3(C)[C@H](CC[C@@H]4[C@@]5(C)CC=C(C6=CC[C@@](COc7ncccc7C#N)(C(=O)O)CC6)C(C)(C)[C@@H]5CC[C@]43C)[C@@H]12` [Example 25, (S)-1-(((3-cyanopyridin-2-yl)oxy)methyl)-4-((1R,3aS,5aR,5bR,7aR,11aS,11bR,13aR,13bR)-3a-((2-(1,1-dioxidothiomorpholino)ethyl)amino)-5a,5b,8,8,11a-pentamethyl-1-(prop-1-en-2-yl)-2,3,3a,4,5,5a,5b,6,7,7a,8,11,11a,11b,12,13,13a,13b-octadecahydro-1H-cyclopenta[a]chrysen-9-yl)cyclohex-3-ene-1-carboxylic acid], the pEC50 in assay [1] (setting [4]) is 8.70; in assay [1] (Human immunodeficiency virus 1, read-out: WT EC50), 8.70; in the assay on gag V370A/ΔT371 virus, 8.00; in assay [2], 7.74; in assay [3] it was 8.00. In addition, the EC90 in the assay on gag V370A/ΔT371 virus (Human immunodeficiency virus 1, read-out: V370A/ΔT371 EC90) came to 2 nM; in assay [2] (Human immunodeficiency virus 1, read-out: A364V EC90) it was 41 nM; in assay [3] (Human immunodeficiency virus 1, read-out: T332S/V362I/prR41G EC90), 21 nM.

`C=C(C)[C@@H]1CC[C@]2(NCCN3CCS(=O)(=O)CC3)CC[C@]3(C)[C@H](CC[C@@H]4[C@@]5(C)CC=C(C6=CC[C@@](COc7ncccc7C(N)=O)(C(=O)O)CC6)C(C)(C)[C@@H]5CC[C@]43C)[C@@H]12` [Example 26, (S)-1-(((3-carbamoylpyridin-2-yl)oxy)methyl)-4-((1R,3aS,5aR,5bR,7aR,11aS,11bR,13aR,13bR)-3a-((2-(1,1-dioxidothiomorpholino)ethyl)amino)-5a,5b,8,8,11a-pentamethyl-1-(prop-1-en-2-yl)-2,3,3a,4,5,5a,5b,6,7,7a,8,11,11a,11b,12,13,13a,13b-octadecahydro-1H-cyclopenta[a]chrysen-9-yl)cyclohex-3-ene-1-carboxylic acid]: the pEC50 was 8.30 in assay [1] (setting [4]), 7.39 in the assay with gag V370A/ΔT371 virus, 7.55 in assay [2] and 7.39 in assay [3].

As to `C=C(C)[C@@H]1CC[C@]2(NCCN3CCS(=O)(=O)CC3)CC[C@]3(C)[C@H](CC[C@@H]4[C@@]5(C)CC=C(C6=CC[C@](COc7ncccc7C(=O)OC)(C(=O)O)CC6)C(C)(C)[C@@H]5CC[C@]43C)[C@@H]12` [Example 27], the pEC50 (in assay [1] (setting [4]); with gag V370A/ΔT371 virus; in assay [2]; in assay [3]) was above 7.30 in each case.
